Test results as given in the supplement of paper PMC12463676, “Small-molecule dissolution of stress granules by redox modulation benefits ALS models” (Nature Chemical Biology, 2025).
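Also: each temperature applied for 3 min, abundance score taken as mean log2 fold change at the two lowest temperatures, z-score obtained by mean subtraction and division by SD.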

UniProt P54920, sequence (P54920 whole entry): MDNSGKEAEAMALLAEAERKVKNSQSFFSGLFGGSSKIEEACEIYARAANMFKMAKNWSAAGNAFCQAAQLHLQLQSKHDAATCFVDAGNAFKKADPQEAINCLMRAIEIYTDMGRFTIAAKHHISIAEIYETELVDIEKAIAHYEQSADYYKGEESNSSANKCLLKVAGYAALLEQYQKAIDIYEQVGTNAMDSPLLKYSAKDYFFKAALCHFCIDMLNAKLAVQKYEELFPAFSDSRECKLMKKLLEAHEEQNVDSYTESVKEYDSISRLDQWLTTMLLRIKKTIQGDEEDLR
UniProt Q05209, sequence (Q05209 whole entry): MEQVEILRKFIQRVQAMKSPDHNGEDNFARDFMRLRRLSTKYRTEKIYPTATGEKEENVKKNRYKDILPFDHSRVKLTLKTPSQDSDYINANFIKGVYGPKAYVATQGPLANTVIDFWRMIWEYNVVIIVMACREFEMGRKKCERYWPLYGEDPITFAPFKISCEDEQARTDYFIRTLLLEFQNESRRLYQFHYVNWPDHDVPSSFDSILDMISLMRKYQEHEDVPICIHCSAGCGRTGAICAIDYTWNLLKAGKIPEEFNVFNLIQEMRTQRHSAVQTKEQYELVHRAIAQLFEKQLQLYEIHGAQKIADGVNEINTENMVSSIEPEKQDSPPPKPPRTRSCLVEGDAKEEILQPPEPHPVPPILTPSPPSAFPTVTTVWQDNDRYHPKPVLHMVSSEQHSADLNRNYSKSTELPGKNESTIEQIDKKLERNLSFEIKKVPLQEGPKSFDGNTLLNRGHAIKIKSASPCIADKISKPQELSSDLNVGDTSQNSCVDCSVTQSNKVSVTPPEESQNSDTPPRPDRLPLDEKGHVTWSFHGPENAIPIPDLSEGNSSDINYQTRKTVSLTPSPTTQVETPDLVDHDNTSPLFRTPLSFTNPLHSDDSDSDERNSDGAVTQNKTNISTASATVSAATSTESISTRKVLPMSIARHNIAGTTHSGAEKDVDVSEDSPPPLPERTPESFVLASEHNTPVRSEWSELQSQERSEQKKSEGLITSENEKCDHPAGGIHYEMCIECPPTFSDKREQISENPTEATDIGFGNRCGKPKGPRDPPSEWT
UniProt Q7Z422, sequence (Q7Z422 whole entry): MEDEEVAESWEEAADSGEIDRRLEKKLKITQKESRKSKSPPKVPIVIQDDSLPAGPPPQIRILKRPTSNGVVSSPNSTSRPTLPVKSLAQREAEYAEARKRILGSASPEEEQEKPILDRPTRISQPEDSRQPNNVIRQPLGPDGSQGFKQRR
UniProt Q9NSC5, sequence (Q9NSC5 whole entry): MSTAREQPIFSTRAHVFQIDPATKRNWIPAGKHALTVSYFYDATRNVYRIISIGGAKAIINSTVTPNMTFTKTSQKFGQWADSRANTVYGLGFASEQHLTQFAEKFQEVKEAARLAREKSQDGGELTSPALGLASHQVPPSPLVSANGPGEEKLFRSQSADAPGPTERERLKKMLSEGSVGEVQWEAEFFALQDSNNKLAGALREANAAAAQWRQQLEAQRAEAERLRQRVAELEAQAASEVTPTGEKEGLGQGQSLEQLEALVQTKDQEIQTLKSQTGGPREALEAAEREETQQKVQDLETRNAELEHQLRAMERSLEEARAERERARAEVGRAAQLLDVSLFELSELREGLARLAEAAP
UniProt Q8TD26, sequence (Q8TD26 whole entry): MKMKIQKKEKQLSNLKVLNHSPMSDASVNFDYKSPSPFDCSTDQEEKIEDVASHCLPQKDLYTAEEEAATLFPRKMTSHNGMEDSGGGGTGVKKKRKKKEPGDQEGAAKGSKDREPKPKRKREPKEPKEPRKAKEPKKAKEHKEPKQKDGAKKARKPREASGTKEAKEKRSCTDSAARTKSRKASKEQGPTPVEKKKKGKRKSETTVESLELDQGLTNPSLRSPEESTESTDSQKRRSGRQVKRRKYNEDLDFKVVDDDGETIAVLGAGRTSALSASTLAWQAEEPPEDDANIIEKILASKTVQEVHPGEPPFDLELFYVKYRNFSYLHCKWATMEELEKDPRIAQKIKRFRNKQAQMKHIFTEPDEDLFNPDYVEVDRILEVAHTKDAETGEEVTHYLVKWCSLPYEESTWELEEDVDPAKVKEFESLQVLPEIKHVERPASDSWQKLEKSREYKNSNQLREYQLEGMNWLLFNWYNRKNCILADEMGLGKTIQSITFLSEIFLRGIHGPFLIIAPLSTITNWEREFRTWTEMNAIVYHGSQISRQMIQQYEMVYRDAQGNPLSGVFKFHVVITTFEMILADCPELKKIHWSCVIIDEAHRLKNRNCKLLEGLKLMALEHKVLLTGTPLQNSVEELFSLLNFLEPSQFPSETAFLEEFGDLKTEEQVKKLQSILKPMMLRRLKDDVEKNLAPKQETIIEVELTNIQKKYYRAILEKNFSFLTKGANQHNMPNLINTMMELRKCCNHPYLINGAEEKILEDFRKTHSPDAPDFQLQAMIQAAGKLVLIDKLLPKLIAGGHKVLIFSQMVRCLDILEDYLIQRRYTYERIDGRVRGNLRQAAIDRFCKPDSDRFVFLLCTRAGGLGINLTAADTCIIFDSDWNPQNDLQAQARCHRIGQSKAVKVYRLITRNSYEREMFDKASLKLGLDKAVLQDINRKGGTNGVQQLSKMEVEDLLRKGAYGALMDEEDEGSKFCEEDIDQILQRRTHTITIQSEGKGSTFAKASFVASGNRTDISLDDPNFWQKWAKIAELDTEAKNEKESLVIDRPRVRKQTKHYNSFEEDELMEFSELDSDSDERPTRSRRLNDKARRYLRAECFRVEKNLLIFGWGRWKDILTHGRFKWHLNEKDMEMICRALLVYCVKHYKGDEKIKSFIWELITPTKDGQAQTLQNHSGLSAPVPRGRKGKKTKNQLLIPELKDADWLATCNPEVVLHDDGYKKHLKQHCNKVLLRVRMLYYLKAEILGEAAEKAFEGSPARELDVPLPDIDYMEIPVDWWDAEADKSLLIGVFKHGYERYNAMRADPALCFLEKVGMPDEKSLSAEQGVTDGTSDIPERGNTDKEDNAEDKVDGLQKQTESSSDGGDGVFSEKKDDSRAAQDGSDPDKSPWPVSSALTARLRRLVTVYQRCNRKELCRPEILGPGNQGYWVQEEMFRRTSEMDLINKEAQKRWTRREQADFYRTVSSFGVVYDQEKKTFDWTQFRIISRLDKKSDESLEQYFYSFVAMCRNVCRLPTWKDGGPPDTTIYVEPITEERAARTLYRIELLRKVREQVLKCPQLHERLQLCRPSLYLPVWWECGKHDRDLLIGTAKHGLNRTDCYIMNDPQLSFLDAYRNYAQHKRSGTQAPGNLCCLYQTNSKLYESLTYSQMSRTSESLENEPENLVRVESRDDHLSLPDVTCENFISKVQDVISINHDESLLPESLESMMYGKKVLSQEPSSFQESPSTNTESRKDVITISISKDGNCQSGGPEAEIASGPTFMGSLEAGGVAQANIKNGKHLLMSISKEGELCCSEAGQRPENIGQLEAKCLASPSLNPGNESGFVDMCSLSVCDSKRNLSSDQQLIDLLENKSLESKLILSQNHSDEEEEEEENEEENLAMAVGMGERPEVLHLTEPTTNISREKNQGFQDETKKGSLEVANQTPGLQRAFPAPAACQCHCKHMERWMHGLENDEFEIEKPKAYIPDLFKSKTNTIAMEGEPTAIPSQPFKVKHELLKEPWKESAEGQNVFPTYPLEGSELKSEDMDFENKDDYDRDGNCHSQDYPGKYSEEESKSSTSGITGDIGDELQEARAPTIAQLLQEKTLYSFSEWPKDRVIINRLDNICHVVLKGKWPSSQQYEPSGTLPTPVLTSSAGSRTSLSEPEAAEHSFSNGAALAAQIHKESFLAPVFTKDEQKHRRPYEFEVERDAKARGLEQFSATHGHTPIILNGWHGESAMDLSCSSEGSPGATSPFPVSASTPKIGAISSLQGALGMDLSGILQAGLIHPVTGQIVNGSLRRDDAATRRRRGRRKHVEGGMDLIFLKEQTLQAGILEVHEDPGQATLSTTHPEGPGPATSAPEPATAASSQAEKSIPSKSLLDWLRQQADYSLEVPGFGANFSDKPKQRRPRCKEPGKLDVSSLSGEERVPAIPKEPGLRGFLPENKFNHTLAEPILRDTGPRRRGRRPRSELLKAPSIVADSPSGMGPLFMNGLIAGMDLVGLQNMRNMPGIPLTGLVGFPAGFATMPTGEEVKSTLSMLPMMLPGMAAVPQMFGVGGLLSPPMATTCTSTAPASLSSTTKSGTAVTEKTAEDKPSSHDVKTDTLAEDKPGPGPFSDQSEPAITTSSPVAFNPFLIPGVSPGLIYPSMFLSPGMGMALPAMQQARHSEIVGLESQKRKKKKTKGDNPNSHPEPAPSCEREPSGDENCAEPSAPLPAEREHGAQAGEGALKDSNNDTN
UniProt Q9Y6I4, sequence (Q9Y6I4 whole entry): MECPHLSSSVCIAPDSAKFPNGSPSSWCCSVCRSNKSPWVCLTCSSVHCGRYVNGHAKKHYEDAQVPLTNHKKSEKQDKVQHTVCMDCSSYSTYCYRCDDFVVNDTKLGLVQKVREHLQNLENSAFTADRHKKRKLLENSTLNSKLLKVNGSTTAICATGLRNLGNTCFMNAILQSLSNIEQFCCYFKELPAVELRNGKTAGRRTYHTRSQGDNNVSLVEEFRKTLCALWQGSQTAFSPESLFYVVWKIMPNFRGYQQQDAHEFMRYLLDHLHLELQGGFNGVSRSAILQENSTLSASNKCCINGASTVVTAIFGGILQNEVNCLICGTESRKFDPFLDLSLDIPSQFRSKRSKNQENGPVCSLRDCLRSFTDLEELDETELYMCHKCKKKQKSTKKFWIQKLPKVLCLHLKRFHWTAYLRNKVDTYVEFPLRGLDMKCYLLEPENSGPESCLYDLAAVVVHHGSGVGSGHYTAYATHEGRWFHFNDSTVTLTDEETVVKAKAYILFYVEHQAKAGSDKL
UniProt O00258, sequence (O00258 whole entry): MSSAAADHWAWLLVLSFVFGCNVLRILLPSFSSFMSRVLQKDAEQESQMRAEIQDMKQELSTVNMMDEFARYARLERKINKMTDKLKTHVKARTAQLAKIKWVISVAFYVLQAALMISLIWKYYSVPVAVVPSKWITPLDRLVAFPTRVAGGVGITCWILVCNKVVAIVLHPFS

The targets below were run with NC(=O)CCCCC1CCSS1 [lipoamide] (assay: thermal stability z-score vs DMSO; higher = more thermally stabilized by treatment). Settings: HeLa; lipoamide concentration 100 µM; arsenate co-treatment: 1 mM arsenate 1 h.
Description: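 Cellular thermal proteome profiling in HeLa cells. Cells were treated with 100 µM lipoamide for 1 h, with or without 1 mM arsenate for a further 1 h, then heated to ten temperatures (37-66.3 °C), and soluble protein was quantified by TMT mass spectrometry relative to 0.1% DMSO controls. The thermal stability score (sum of log2 fold changes minus the abundance score) was transformed to a z-score; mean of n = 3 experiments.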
For NAPA (UniProt P54920), the thermal stability z-score was 0.374. In the case of METTL13 (UniProt Q8N6R0), the thermal stability z-score is reported as -0.507. With TMEM57 (UniProt Q8N5G2) the thermal stability z-score was 0.13. WBSCR16 (UniProt Q96I51) gave a thermal stability z-score of 1.56. Work on HOMER3 (UniProt Q9NSC5) yielded a thermal stability z-score of 0.5. In the case of HS2ST1 (UniProt Q7LGA3), the thermal stability z-score is reported as 0.123. With RFX1 (UniProt P22670) the thermal stability z-score was 1.04. In the case of FADS3 (UniProt Q9Y5Q0), the thermal stability z-score is reported as -0.431. WRB (UniProt O00258) was tested, and the thermal stability z-score was -0.618. In the case of MED12 (UniProt Q93074), the thermal stability z-score is reported as -0.255. Work on PHAX (UniProt Q9H814) yielded a thermal stability z-score of 0.329. Target PTPN12 (UniProt Q05209) has a thermal stability z-score of -0.407. For VPS37B (UniProt Q9H9H4), the thermal stability z-score was -0.0126. Work on SBF2 (UniProt Q86WG5) yielded a thermal stability z-score of -0.149. SZRD1 (UniProt Q7Z422) showed a thermal stability z-score of 0.289. In the case of KIAA1468 (UniProt Q9P260), the thermal stability z-score is reported as 0.284. With HOOK2 (UniProt Q96ED9) the thermal stability z-score was 0.0635. With NUDT12 (UniProt Q9BQG2) the thermal stability z-score was 0.0414. For LARS (UniProt Q9P2J5), the thermal stability z-score was -0.63. For MBD4 (UniProt O95243), the thermal stability z-score was -0.0777. SETDB1 (UniProt Q15047) was tested, and the thermal stability z-score was -0.239. RPL37A (UniProt P61513) was tested, and the thermal stability z-score was 0.766. For UMPS (UniProt P11172), the thermal stability z-score was 0.111. KIAA0391 (UniProt O15091) showed a thermal stability z-score of -0.0274. In the case of IQGAP3 (UniProt Q86VI3), the thermal stability z-score is reported as -0.157. USP3 (UniProt Q9Y6I4) gave a thermal stability z-score of 0.0204. For CHD6 (UniProt Q8TD26), the thermal stability z-score was -8.33e-05. In the case of UBE2G1 (UniProt P62253), the thermal stability z-score is reported as 0.288. For KIAA0196 (UniProt Q12768), the thermal stability z-score was -0.101. MORC3 (UniProt Q14149) showed a thermal stability z-score of -0.165. With PLK1 (UniProt P53350) the thermal stability z-score was -0.0395. Target ASF1A (UniProt Q9Y294) has a thermal stability z-score of -0.132. For UTP15 (UniProt Q8TED0), the thermal stability z-score was 0.625. With TRAPPC12 (UniProt Q8WVT3) the thermal stability z-score was -0.757. PPIP5K2 (UniProt O43314) gave a thermal stability z-score of 0.258. With ROCK1 (UniProt Q13464) the thermal stability z-score was -0.134. In the case of RABL6 (UniProt Q3YEC7), the thermal stability z-score is reported as -0.678. PDHA1 (UniProt P08559) gave a thermal stability z-score of 0.0392. TUBB6 (UniProt Q9BUF5) gave a thermal stability z-score of -0.348. For XRCC6 (UniProt P12956), the thermal stability z-score was -0.75. YY1 (UniProt P25490) was tested, and the thermal stability z-score was 0.0187. With EVI5 (UniProt O60447) the thermal stability z-score was -0.272. TRIM27 (UniProt P14373) was tested, and the thermal stability z-score was 0.641. SH3GLB2 (UniProt Q9NR46) showed a thermal stability z-score of -0.0875. RASSF5 (UniProt Q8WWW0) was tested, and the thermal stability z-score was -0.444. OCRL (UniProt Q01968) was tested, and the thermal stability z-score was 0.142. AMACR (UniProt Q9UHK6) showed a thermal stability z-score of 0.683. TFCP2 (UniProt Q12800) gave a thermal stability z-score of 0.151. In the case of NOL11 (UniProt Q9H8H0), the thermal stability z-score is reported as 0.118. DNM2 (UniProt P50570) was tested, and the thermal stability z-score was -0.494. For ANAPC4 (UniProt Q9UJX5), the thermal stability z-score was -0.529. NTPCR (UniProt Q9BSD7) gave a thermal stability z-score of -0.0779. For NUP58 (UniProt Q9BVL2), the thermal stability z-score was 2.2. With DDX55 (UniProt Q8NHQ9) the thermal stability z-score was 0.693. For SFXN3 (UniProt Q9BWM7), the thermal stability z-score was 0.507.

Same assay, conditions: HeLa; lipoamide concentration 100 µM; arsenate co-treatment: none
NAPA (UniProt P54920) gave a thermal stability z-score of 0.143. Target METTL13 (UniProt Q8N6R0) has a thermal stability z-score of -0.621. In the case of TMEM57 (UniProt Q8N5G2), the thermal stability z-score is reported as -0.0957. Target WBSCR16 (UniProt Q96I51) has a thermal stability z-score of 0.878. HOMER3 (UniProt Q9NSC5) showed a thermal stability z-score of 0.526. Target HS2ST1 (UniProt Q7LGA3) has a thermal stability z-score of -0.171. Target RFX1 (UniProt P22670) has a thermal stability z-score of 0.453. For FADS3 (UniProt Q9Y5Q0), the thermal stability z-score was 0.482. In the case of WRB (UniProt O00258), the thermal stability z-score is reported as 0.0706. Work on MED12 (UniProt Q93074) yielded a thermal stability z-score of -0.248. For PHAX (UniProt Q9H814), the thermal stability z-score was 0.358. In the case of PTPN12 (UniProt Q05209), the thermal stability z-score is reported as -0.595. Target VPS37B (UniProt Q9H9H4) has a thermal stability z-score of 0.246. SBF2 (UniProt Q86WG5) was tested, and the thermal stability z-score was -0.0174. Target SZRD1 (UniProt Q7Z422) has a thermal stability z-score of 0.399. For KIAA1468 (UniProt Q9P260), the thermal stability z-score was 0.0862. Work on HOOK2 (UniProt Q96ED9) yielded a thermal stability z-score of -0.0859. In the case of NUDT12 (UniProt Q9BQG2), the thermal stability z-score is reported as 0.0448. For LARS (UniProt Q9P2J5), the thermal stability z-score was 0.0502. With MBD4 (UniProt O95243) the thermal stability z-score was 0.0091. SETDB1 (UniProt Q15047) was tested, and the thermal stability z-score was -0.253. With RPL37A (UniProt P61513) the thermal stability z-score was 0.392. Work on UMPS (UniProt P11172) yielded a thermal stability z-score of 0.297. KIAA0391 (UniProt O15091) gave a thermal stability z-score of 0.14. Target IQGAP3 (UniProt Q86VI3) has a thermal stability z-score of -0.0447. USP3 (UniProt Q9Y6I4) gave a thermal stability z-score of 0.0221. CHD6 (UniProt Q8TD26) showed a thermal stability z-score of -0.00133.
